Like-named read-outs stand apart in the source and are kept apart here. One block for each compound: values may come before it.
Tests used:
A431 cancer cells = experiment: A431 cytotoxicity (cell proliferation); format: cell-based, human
[1] = test system: cellular microtubules in A-10 cells; experiment: Microtubule depolymerization, indirect immunofluorescence; format: cell-based; conditions: Rattus norvegicus, A10; A-10 cells, 18 h; read-out: EC50 for MT depolymerization in A-10 cells
[2] = test system: chicken embryo chorioallantoic membrane; experiment: Chorioallantoic membrane (CAM) assay of angiogenesis; conditions: Gallus gallus, 48 h, read-out: CAM angiogenesis inhibition
[3] = test system: M6/6 cells (SK-OV-3 expressing Pgp); experiment: Antiproliferative SRB assay
MDA-435 cells = experiment: Antiproliferative SRB assay; format: cell-based; conditions: MDA435, 48 h, read-out: IC50 ± SD in MDA-435 cells
[4] = test system: WTβ3 cells (HeLa overexpressing βIII tubulin); experiment: Antiproliferative SRB assay; format: cell-based; conditions: Homo sapiens, HeLa; SRB, 48 h; read-out: IC50 ± SD in WTβ3
SKOV3 cells = experiment: Antiproliferative SRB assay; format: cell-based; conditions: Homo sapiens, SK-OV-3, 48 h, read-out: IC50 ± SD in SKOV3 cells

- EC50 [1]: > 10000 nM
Compound: CCOc1ccc(N(C)c2nc(C)nc3oc(C)cc23)cc1 [Compound 11, N-(4-ethoxyphenyl)-N,2,6-trimethylfuro[2,3-d]pyrimidin-4-amine]
- IC50 (A431 cancer cells; Homo sapiens, A-431): 11.6 ± 2.1 nM
- IC50 [2]: 50100 ± 8200 nM

Compound: CCCOc1ccc(N(C)c2nc(C)nc3oc(C)cc23)cc1 [Compound 12, N-2,6-trimethyl-N-(4-propoxyphenyl)furo[2,3-d]pyrimidin-4-amine]
- IC50 (A431 cancer cells): 92.9 ± 10.1 nM
- Rr value (relative resistance) ([3]; M6/6 (Pgp) vs SKOV3): 1.3
- IC50 ([3]; read-out: IC50 ± SD in M6/6 cells, SRB, 48 h): 30.8 ± 1.7 nM

- IC50 [4]: 32.9 ± 5.8 nM
- IC50 (SKOV3 cells): 6.3 ± 0.4 nM
Compound: CC(=O)O[C@H]1C(=O)[C@@]2(C)[C@H]([C@H](OC(=O)c3ccccc3)[C@]3(O)C[C@H](OC(=O)[C@H](O)[C@@H](NC(=O)c4ccccc4)c4ccccc4)C(C)=C1C3(C)C)[C@]1(OC(C)=O)CO[C@@H]1C[C@@H]2O [Paclitaxel, reference compound]
- IC50 (MDA-435 cells): 3.3 ± 0.3 nM

From patent US10189853B2, “Conformationally restricted 4-substituted-2,6-dimethylfuro[2,3-d]pyrimidines as anti-tumor agents” (DUQUESNE UNIVERSITY OF THE HOLY SPIRIT, priority 2014, dated 2019)
